Reference: patent US20180369195A1, “COMBINATION THERAPY FOR TREATMENT OF MELANOMA” (The Regents of the University of California, priority 2015, published 2018)

Experiments:
GSK3β and Axin = experiment: Western blot of β-catenin destruction complex components; type: cell-based, human; conditions: melanoma cell lines, 20 μM 1-benzyl I3C
Description: (§1) Western Blot analyses of samples electrophoretically fractionated on 12% acrylamide gels were carried out as previously described (Wagle et al., J. Clin. Oncol. 2011. 29(22):3085-3096; Nguyen et al., Chem. Biol. Interact. 2010. 186(3):255-266). Enhanced chemiluminescence (ECL) Lightening reagents were used to visualize the primary antibody bound protein bands in nitrocellulose membranes and the results captured on ECL Autoradiography Film (GE Healthcare, Piscataway, N.J.). The western blots employed the following primary antibodies: mouse anti-MITF-M (Thermo-scientific), mouse anti-HSP 90 (BD Biosciences), mouse anti-CDK2, rabbit anti-CDK4, rabbit anti-CDK-6, mouse anti-rabbit BRAF, goat anti-LEF-1, rabbit anti-AXIN, mouse anti-BCL2, (Santa Cruz), rabbit anti-P21, mouse anti-Cyclin D1, rabbit anti-MEK-p, rabbit anti-MEK1/2, rabbit anti-GSK3β rabbit anti-LRP6, rabbit anti-LRP6-phospho (Cell signaling), mouse anti-β-catenin (Invitrogen).

LRP5/6 = experiment: Western blot of Wnt co-receptor; type: cell-based, human; conditions: melanoma cell lines, 20 μM 1-benzyl I3C
Description: as §1

[1] = test system: 5 different melanoma cells lines; experiment: CCK-8 proliferation assay, 5 melanoma cell lines with distinct mutation profiles; type: cell-based, human; conditions: 20 μM 1-benzyl I3C, 200 μM I3C, 48 hours
Description: The same treatment regime was repeated on multiple melanoma cell lines with 20 μM 1-benzyl I3C and 200 μM I3C for 48 hours to compare the relative sensitivities of the different cell lines with distinct mutation profiles to 1-benzyl I3C and I3C. Cells were treated with 20 μM 1-benzyl I3C every 24 hours for 72 hours and harvested at 24, 48 and 72 hours for western blot and flow cytometric analysis. Cells were treated with 20 μM LiCl or 10 μM BIO for 48 hours before harvesting them for western blots.
(§2) Subsequently inhibition of proliferation was assessed using Cell counting Kit-8 (Dojindo) as per the protocol in the user's manual. Briefly, 50 μl of the CCK-8 solution was added to each well along with 450 μl media and incubated for 2-3 hours. The absorbance was read at 450 nm and % inhibition was calculated for each condition standardizing DMSO to zero using the formula: [(100−Value of treatment/Value of DMSO treated control)×100]

CDK 2, 4, 6 = experiment: Western blot of key cell cycle regulators; type: cell-based, human; conditions: melanoma cell lines, 1-benzyl I3C, 24, 48, 72 hours
Description: as §1

β-catenin = experiment: Western blot of β-catenin; type: cell-based, human; conditions: G-361, DM-738, SK-MEL-2 cells, 20 μM 1-benzyl I3C, 24, 48 and 72 hours
Description: The western blots employed the following primary antibodies: mouse anti-MITF-M (Thermo-scientific), mouse anti-HSP 90 (BD Biosciences), mouse anti-CDK2, rabbit anti-CDK4, rabbit anti-CDK-6, mouse anti-rabbit BRAF, goat anti-LEF-1, rabbit anti-AXIN, mouse anti-BCL2, (Santa Cruz), rabbit anti-P21, mouse anti-Cyclin D1, rabbit anti-MEK-p, rabbit anti-MEK1/2, rabbit anti-GSK3β rabbit anti-LRP6, rabbit anti-LRP6-phospho (Cell signaling), mouse anti-β-catenin (Invitrogen).

RPMI-7951 cells = experiment: CCK-8 proliferation assay, RPMI-7951; type: cell-based, human; conditions: 200 μM I3C, 72 hours; BRAF-V600E
Description: as §2, with “Cells were treated with 20 μM 1-benzyl I3C every 24 hours for 72 hours and harvested at 24, 48 and 72 hours for western blot and flow cytometric analysis. […] Subsequently” for “Subsequently”

SK-MEL-2 cells = experiment: Flow cytometry analysis of DNA content, SK-MEL-2; type: cell-based, human; conditions: all tested concentrations of I3C
Description: Melanoma cells were treated with the indicated concentrations of 1-benzyl […] in triplicates every 24 hours and harvested at the end of 24, 48 or 72 hours for cell cycle analysis. The DNA content of propidium iodide stained nuclei from harvested cells were determined by flow cytometry. Briefly, cells were hypotonically lysed in […] of DNA staining solution (0.5 mg/mL propidium iodide, 0.1% sodium citrate, and 0.05% Triton-X 100). Emitted fluorescence from the nuclear of wavelengths more than 585 nm was measured with a Coulter Elite instrument with laser output adjusted to deliver 15 mW at 488 nm. Ten thousand nuclei were analyzed from each sample at a rate of 300-500 nuclei/second. The percentage of cells within the G1, S, and G2/M phases of the cell cycle were determined by analysis with the Multicycle computer program provided by Phoenix Flow Systems in the Cancer Research Laboratory Microchemical Facility of the University of California, Berkeley.

SK-MEL-24 cells = experiment: CCK-8 proliferation assay, SK-MEL-24; type: cell-based, human; conditions: 200 μM I3C, 72 hours; wild type BRAF
Description: as §2, with “[(100-Value” for “[(100−Value”

BRN2 = experiment: Immunofluorescence of BRN2 localization; type: cell-based, human; conditions: G-361 cells, 200 μM I3C, 48 hours
wild type BRAF = target: T1, wild type BRAF (Homo sapiens, UniProt P15056); experiment: In vitro BRAF kinase assay, in-vitro treated wild type BRAF from SK-MEL-2 cells; type: biochemical; conditions: pre-incubated 2 hours; 200 μM or 400 μM I3C, 10 μM Vemurafenib
T1 construct: Wild type BRAF was immunoprecipitated from SK-MEL-2 melanoma cells; endogenous in cells; host or cells: SK-MEL-2 human melanoma cells (ATCC)
T1 sequence (P15056 whole entry): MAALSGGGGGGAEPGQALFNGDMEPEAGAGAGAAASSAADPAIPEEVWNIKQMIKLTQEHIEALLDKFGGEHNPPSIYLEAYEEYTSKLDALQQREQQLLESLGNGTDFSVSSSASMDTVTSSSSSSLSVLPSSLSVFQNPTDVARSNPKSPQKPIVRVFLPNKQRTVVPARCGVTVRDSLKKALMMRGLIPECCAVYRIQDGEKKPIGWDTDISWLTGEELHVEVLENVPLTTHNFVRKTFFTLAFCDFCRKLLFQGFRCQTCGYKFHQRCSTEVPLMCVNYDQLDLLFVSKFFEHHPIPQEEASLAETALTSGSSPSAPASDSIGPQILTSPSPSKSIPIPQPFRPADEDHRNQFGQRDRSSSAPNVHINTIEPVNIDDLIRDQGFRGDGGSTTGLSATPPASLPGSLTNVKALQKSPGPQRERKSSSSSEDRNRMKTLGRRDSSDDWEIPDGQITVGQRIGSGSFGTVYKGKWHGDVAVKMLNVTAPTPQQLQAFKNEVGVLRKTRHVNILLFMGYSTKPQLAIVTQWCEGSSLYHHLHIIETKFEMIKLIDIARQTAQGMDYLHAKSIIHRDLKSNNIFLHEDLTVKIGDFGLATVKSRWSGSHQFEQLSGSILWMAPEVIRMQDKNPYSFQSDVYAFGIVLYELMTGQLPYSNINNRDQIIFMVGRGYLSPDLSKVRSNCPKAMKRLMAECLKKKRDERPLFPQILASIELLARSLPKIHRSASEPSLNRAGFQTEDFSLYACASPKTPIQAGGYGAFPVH
Description: BRAF was pulled down from the cell lysates using anti-BRAF antibodies bound to protein G-coupled Sepharose beads, while IgG was used as a negative control. Post-immunoprecipitation supernatants were probed with anti BRAF antibody by western blots to determine pull-down efficiency. […] The reactions were terminated by adding 4× sodium dodecyl sulfate (SDS) sample buffer and boiling the mixture at 100° C. for 5 min. The samples were then electrophoresed, immunoblotted and probed for relative protein levels of phosphorylated MEK and total MEK to assess the kinase activity of the immunoprecipitated BRAF.

phosphorylated MEK = experiment: Western blot of phosphorylated MEK; type: cell-based, human; conditions: 200 μM I3C, 72 hour time course
Description: Western Blot analyses of samples electrophoretically fractionated on 12% acrylamide gels were carried out as previously described (Wagle et al., J. Clin. Oncol. 2011. 29(22):3085-3096; Nguyen et al., Chem. Biol. Interact. 2010. 186(3):255-266). […] The western blots employed the following primary antibodies: mouse anti-MITF-M (Thermo-scientific), mouse anti-HSP 90 (BD Biosciences), mouse anti-CDK2, rabbit anti-CDK4, rabbit anti-CDK-6, mouse anti-rabbit BRAF, goat anti-LEF-1, rabbit anti-AXIN, mouse anti-BCL2, (Santa Cruz), rabbit anti-P21, mouse anti-Cyclin D1, rabbit anti-MEK-p, rabbit anti-MEK1/2, rabbit anti-GSK3β rabbit anti-LRP6, rabbit anti-LRP6-phospho (Cell signaling), mouse anti-β-catenin (Invitrogen).

| Structure (SMILES) | GSK3β and Axin levels (GSK3β and Axin) | LRP5/6 levels (LRP5/6) | range of sensitivity across mutation profiles [1] | levels of key cell cycle regulators (CDK 2, 4, 6) | β-catenin protein levels (β-catenin) | sensitivity to anti-proliferative effects (RPMI-7951 cells) | G1 cell cycle arrest (SK-MEL-2 cells) | sensitivity to anti-proliferative effects (SK-MEL-24 cells) | nuclear localization of BRN2 (BRN2) | wild type BRAF enzymatic activity, direct in vitro incubation (wild type BRAF) | phosphorylated MEK levels (phosphorylated MEK; G-361 and DM738 cells) | phosphorylated MEK levels (phosphorylated MEK; SK-MEL-2 cells) |
| --- | --- | --- | --- | --- | --- | --- | --- | --- | --- | --- | --- | --- |
| OCc1cn(Cc2ccccc2)c2ccccc12 [1-benzyl I3C, 1-benzyl indole-3-carbinol] | upregulation | significantly downregulated | much wider range of sensitivity than I3C and Vemurafenib | downregulation of key cell cycle regulators like CDK 2, 4, 6 | significantly downregulated |  |  |  |  |  |  |  |
| OCc1c[nH]c2ccccc12 [I3C, indole-3-carbinol] |  |  |  |  |  | Most sensitive | remained in a rapidly proliferating state | significantly less sensitive | disrupted the nuclear localization of Brn2 | no effect | strongly down regulated | no effect |
